Reference: US20040043503A1, “Automatic mass spectrometry analytical system for the quantitative detection of organic toxicant exposure in the human body” (priority 2002, published 2004)

Assay: S-PMA concentration in urine samples from neonates and adults, by automatic mass spectrometry analytical system (on-line C18 cartridge, ESI-MS/MS)
Type: in vivo, human
Method: The collected urine samples were passed through 0.2 μm filtration membranes. An aliquot of 400 μL of filtered urine was firstly mixed with […] of 20% acetic acid and 100 μL of 1000 μg/L internal standard (IS), N-t-BOC-S-(p-methyl-benyl)-L-cysteine, with a known amount of S-PMA added when spiking experiments were performed, and diluted with 1400 μL of deionized water. From the total volume of 2000 μL, 200 μL of aliquot was injected into the analytical system (FIG. 1) for analysis. No other sample pretreatment procedures were performed or required other than the filtration described above. This can greatly simplify preparation procedures and save time.
Samples were loaded onto the C18 cartridge 2 (particle size 3 μm) by the pump 10 of autosampler 1 (as shown in FIG. 1) using 100% water at 0.6 mL/min, and were washed with 100% water for optimization time of 12 minutes (1.0, 2.0, 3.0, 4.0, 5.0, 6.0, 7.0, 8.0, 10.0, 12.0, 13.0, 14.0). This is to remove highly hydrophilic components of the urine samples to avoid interference with the subsequent detection results of spectrometry 4. The switching unit 3 (valve) was then activated to the Elute position and the sample was eluted with 1.0 mL/min 100% methanol provided by pump 10′ from cartridge 2 into the mass spectrometry 4 for analysis.
The mass spectrometry used in this invention is the API 365 Triple Quadrupole MS/MS.
Using the process described in Embodiment 1 above, this invention was used to establish the optimal experimental mode of quantitative detection of organic toxicant exposure in the human body using an automatic mass spectrometry analytical system. This Embodiment is to analyze the S-PMA concentration in urine samples collected from six neonates and six adults in the same hospital; the results are listed in Table 1. In the automatic mass spectrometry analytical system of this invention, each analysis took less than 18 minutes, and therefore 80 urine samples could be analyzed within 24 hours.

Structure (SMILES): CC(=O)NC(CSc1ccccc1)C(=O)O (centres unmarked) [S-PMA, S-phenyl mercapturic acid]
- S-PMA (Adult 1, non-smoker): 0.560 µg/L
- S-PMA (Adult 2, non-smoker): 1.268 µg/L
- S-PMA (Adult 3, non-smoker): 1.411 µg/L
- S-PMA (Adult 4, non-smoker): 4.196 µg/L
- S-PMA (Adult 5, non-smoker): 0.993 µg/L
- S-PMA (Adult 6, non-smoker): 1.255 µg/L
- S-PMA (Neonate 1): 0.249 µg/L
- S-PMA (Neonate 2): 0.345 µg/L
- S-PMA (Neonate 3): 0.322 µg/L
- S-PMA (Neonate 4): 0.365 µg/L
- S-PMA (Neonate 5): 0.356 µg/L
- S-PMA (Neonate 6): 0.348 µg/L
- S-PMA Arithmetic Mean (six adults, non-smokers): 1.614 µg/L
- S-PMA Arithmetic Mean (six neonates): 0.331 µg/L
